Results from patent US20250034170A1, “SMALL MOLECULE MODULATORS OF GLUCOCEREBROSIDASE ACTIVITY AND USES THEREOF” (Vanqua Bio, Inc., priority 2021, published 2025).

What follows are compounds tested against T1, GCase (Homo sapiens, UniProt P04062) (assay: activation of GCase in a live cell PFB assay in HELA cells). Settings: EC50 given as range classes.
T1 construct: endogenous in cells; host or cells: HeLa cells
T1 sequence (P04062 40-536): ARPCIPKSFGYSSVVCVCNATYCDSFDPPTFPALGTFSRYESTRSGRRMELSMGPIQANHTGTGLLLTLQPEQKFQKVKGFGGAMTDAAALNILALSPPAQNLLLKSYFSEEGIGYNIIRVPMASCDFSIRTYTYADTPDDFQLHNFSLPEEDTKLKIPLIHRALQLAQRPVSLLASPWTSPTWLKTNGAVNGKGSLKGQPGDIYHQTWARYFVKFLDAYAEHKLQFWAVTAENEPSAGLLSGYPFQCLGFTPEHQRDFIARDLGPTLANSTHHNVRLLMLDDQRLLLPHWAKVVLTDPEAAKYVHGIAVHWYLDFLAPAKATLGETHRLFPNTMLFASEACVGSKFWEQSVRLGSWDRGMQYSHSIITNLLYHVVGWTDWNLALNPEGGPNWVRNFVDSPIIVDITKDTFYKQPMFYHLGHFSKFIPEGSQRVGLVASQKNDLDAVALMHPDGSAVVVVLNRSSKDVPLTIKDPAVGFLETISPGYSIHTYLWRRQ
Type: cell-based
Procedure: Exemplary compounds were evaluated for activation of GCase in a live cell PFB assay in HELA cells (essentially as described in Ysselstein et al., “LRRK2 kinase activity regulates lysosomal glucocerebrosidase in neurons derived from Parkinson's disease patients” Nature Communications (2019) 10:5570). […] EC50 ranges: A: <10 μM; B: >10-50 μM; C: >50-100 μM; D: >100 μM.

EC50 [µM]	SMILES
< 10	Cc1cc(C(F)(F)F)ncc1N1CC2(CCN(c3cnc4cnn(CC(F)F)c4n3)CC2)CC1=O [Cmpd 778]
< 10	COc1nc(C(F)(F)F)ccc1N1CC2(CCN(c3cnc4cnn(CC(F)F)c4n3)CC2)CC1=O [Cmpd 779]
< 10	O=C1CC2(CCN(c3cnc4cnn(CC(F)F)c4n3)CC2)CN1c1ccc(C(F)(F)F)nc1OC(F)F [Cmpd 780]
< 10	Cc1ccc(N2CC3(CCN(c4cnc5cnn(CC(F)F)c5n4)CC3)CC2=O)c(OC(F)F)n1 [Cmpd 781]
< 10	Cc1ccc(N2CC3(CCN(c4cnc5cnn(CC(F)F)c5n4)CC3)CC2=O)c(OC(F)(F)F)n1 [Cmpd 782]
50 to 100	COc1nc(N2CCC3(CCN(c4cnc5cnn(CC(F)F)c5n4)CC3)C2=O)ccc1C(F)(F)F [Cmpd 783]
< 10	COc1ccc(C(F)(F)F)c(N2CCC3(CCN(c4cnc5cnn(CC(F)F)c5n4)CC3)C2=O)n1 [Cmpd 784]
> 100	Cc1cnc(N2CCC3(CCN(c4cnc5cnn(CC(F)F)c5n4)CC3)C2)nc1C(F)(F)F [Cmpd 785]
< 10	Cc1nc(C(F)(F)F)cnc1N1CCC2(CCN(c3cnc4cnn(CC(F)F)c4n3)CC2)C1 [Cmpd 786]
< 10	COc1nc(C(F)(F)F)ncc1N1CCC2(CCN(c3cnc4cnn(CC(F)F)c4n3)CC2)C1 [Cmpd 787]
10 to 50	COc1ncc(N2CCC3(CCN(c4cnc5cnn(CC(F)F)c5n4)CC3)C2)c(C(F)(F)F)n1 [Cmpd 788]
10 to 50	O=C1CC2(CCN(c3cnc4cnn(CC(F)F)c4n3)C2)CCN1c1ccc(C(F)(F)F)nc1 (centres unmarked) [Cmpd 789]
< 10	O=C1CCC2(CCN(c3cnc4cnn(CC(F)F)c4n3)C2)CN1c1ccc(C(F)(F)F)nc1 (centres unmarked) [Cmpd 790]
50 to 100	O=C1CC2(CCN(c3cnc4cnn(CC(F)F)c4n3)C2)CCN1c1ccc(C(F)(F)F)cn1 (centres unmarked) [Cmpd 791]
< 10	O=C1CCC2(CCN(c3cnc4cnn(CC(F)F)c4n3)C2)CN1c1ccc(C(F)(F)F)cn1 (centres unmarked) [Cmpd 792]
10 to 50	O=C1CC2(CCN(c3cnc4cnn(CC(F)F)c4n3)C2)CCN1c1cc(C(F)(F)F)ccn1 (centres unmarked) [Cmpd 793]
< 10	O=C1CCC2(CCN(c3cnc4cnn(CC(F)F)c4n3)C2)CN1c1cc(C(F)(F)F)ccn1 (centres unmarked) [Cmpd 794]
< 10	O=C1CC2(CCN(c3cnc4cnn(CC(F)F)c4n3)C2)CCN1c1cncc(C(F)(F)F)c1 (centres unmarked) [Cmpd 795]
< 10	O=C1CCC2(CCN(c3cnc4cnn(CC(F)F)c4n3)C2)CN1c1cncc(C(F)(F)F)c1 (centres unmarked) [Cmpd 796]
< 10	O=C1N(c2ccc(C(F)(F)F)nc2)CCC12CC1CCC(C2)N1c1cnc2cnn(CC(F)F)c2n1 (centres unmarked) [Cmpd 797]
10 to 50	O=C1N(c2ccc(C(F)(F)F)cn2)CCC12CC1CCC(C2)N1c1cnc2cnn(CC(F)F)c2n1 (centres unmarked) [Cmpd 798]
< 10	O=C1N(c2ccc(C(F)(F)F)nc2)CCC12C1CCC2CN(c2cnc3cnn(CC(F)F)c3n2)C1 (centres unmarked) [Cmpd 799]
< 10	O=C1N(c2ccc(C(F)(F)F)cn2)CCC12C1CCC2CN(c2cnc3cnn(CC(F)F)c3n2)C1 (centres unmarked) [Cmpd 800]
50 to 100	O=C1CC2(CN1c1ccc(C(F)(F)F)nc1)C1CC2CN(c2cnc3cnn(CC(F)F)c3n2)C1 (centres unmarked) [Cmpd 801]
10 to 50	O=C1CC2(CN1c1ccc(C(F)(F)F)cn1)C1CC2CN(c2cnc3cnn(CC(F)F)c3n2)C1 (centres unmarked) [Cmpd 802]
< 10	O=C1N(c2cnc3cnn(CC(F)F)c3n2)CCC12CC1CCC(C2)N1c1ccc(C(F)(F)F)nc1 (centres unmarked) [Cmpd 803]
10 to 50	O=C1CC2(CN1c1ccc(C(F)(F)F)nc1)C1CCC2CN(c2cnc3cnn(CC(F)F)c3n2)C1 (centres unmarked) [Cmpd 804]
10 to 50	O=C1CC2(CN1c1cnc(C(F)(F)F)cn1)C1CCC2CN(c2cnc3cnn(CC(F)F)c3n2)C1 (centres unmarked) [Cmpd 805]

EC50 [µM]	SMILES
10 to 50	O=C1CC2(CN1c1cncc(C(F)(F)F)n1)C1CCC2CN(c2cnc3cnn(CC(F)F)c3n2)C1 (centres unmarked) [Cmpd 806]
< 10	FC(F)Cn1ncc2ncc(N3CCC4(CCN(c5ccc(C(F)(F)F)nc5)CC4)CC3)nc21 [Cmpd 807]
10 to 50	FC(F)Cn1ncc2ncc(N3CCC4(CCN(c5cncc(C(F)(F)F)c5)CC4)CC3)nc21 [Cmpd 808]
< 10	FC(F)Cn1ncc2ncc(N3CCC4(CCN(c5cccc(C(F)(F)F)n5)CC4)CC3)nc21 [Cmpd 809]
10 to 50	FC(F)Cn1ncc2ncc(N3CCC4(CCN(c5ccc(C(F)(F)F)cn5)CC4)CC3)nc21 [Cmpd 810]
< 10	FC(F)Cn1ncc2ncc(N3CCC4(CCN(c5cc(C(F)(F)F)ccn5)CC4)CC3)nc21 [Cmpd 811]
< 10	FC(F)Cn1ncc2ncc(N3CCC4(CCN(c5ccnc(C(F)(F)F)c5)CC4)CC3)nc21 [Cmpd 812]
< 10	FC(F)Cn1ncc2ncc(N3CCC4(CCN(c5cncc(C(F)(F)F)n5)CC4)CC3)nc21 [Cmpd 813]
< 10	FC(F)Cn1ncc2ncc(N3CCC4(CCN(c5cnc(C(F)(F)F)cn5)CC4)CC3)nc21 [Cmpd 814]
10 to 50	CC1(C)CC2(CCN(c3cnc4cnn(CC(F)F)c4n3)CC2)C(=O)N1c1ccc(C(F)(F)F)nc1 [Cmpd 815]
10 to 50	CC1(C)N(c2ccc(C(F)(F)F)nc2)C(=O)CC12CCN(c1cnc3cnn(CC(F)F)c3n1)CC2 [Cmpd 816]
< 10	O=C1N(c2ccnc(C(F)(F)F)c2)C(=O)C2(CCN(c3cnc4cnn(CC(F)F)c4n3)CC2)N1Cc1cc(F)cc(F)c1 [Cmpd 817]
< 10	O=C1N(c2ccc(C(F)(F)F)nc2)C(=O)C2(CCN(c3cnc4cnn(CC(F)F)c4n3)CC2)N1Cc1cc(F)cc(F)c1 [Cmpd 818]
< 10	O=C1N(c2cnc(C(F)(F)F)nc2)C(=O)C2(CCN(c3cnc4cnn(CC(F)F)c4n3)CC2)N1Cc1cc(F)cc(F)c1 [Cmpd 819]
< 10	O=C1N(c2cncc(C(F)(F)F)n2)C(=O)C2(CCN(c3cnc4cnn(CC(F)F)c4n3)CC2)N1Cc1cc(F)cc(F)c1 [Cmpd 820]
< 10	O=C1N(c2cnc(C(F)(F)F)cn2)C(=O)C2(CCN(c3cnc4cnn(CC(F)F)c4n3)CC2)N1Cc1cc(F)cc(F)c1 [Cmpd 821]
> 100	CCOCCN1C(=O)N(c2cc(C(F)(F)F)ccn2)C(=O)C12CCN(c1cnc3cnn(CC(F)F)c3n1)CC2 [Cmpd 822]
10 to 50	FC(F)(F)c1ncc(N2CCC3(CCN(c4cncc(-c5nncs5)n4)CC3)C2)cn1 [Cmpd 823]
10 to 50	FC(F)(F)c1cnc(N2CCC3(CCN(c4cncc(-c5nncs5)n4)CC3)C2)cn1 [Cmpd 824]
10 to 50	FC(F)(F)c1ccc(N2CCC3(CCN(c4cncc(-c5nncs5)n4)CC3)C2)nn1 [Cmpd 825]
10 to 50	FC(F)Cn1ncc2cnc(N3CCC4(CCN(c5ccc(C(F)(F)F)nc5)C4)CC3)nc21 [Cmpd 827]
10 to 50	O=C1CC2(CCN(c3ncc4cnn(CC(F)F)c4n3)CC2)CN1c1ccc(C(F)(F)F)nc1 [Cmpd 828]
< 10	Cc1nn(CC(F)F)c2nc(N3CCC4(CCN(c5cnc(C(F)(F)F)nc5)C4)CC3)cnc12 [Cmpd 829]
< 10	Cc1nn(CC(F)F)c2nc(N3CCC4(CCN(c5ccc(C(F)(F)F)nc5)C4)CC3)ncc12 [Cmpd 830]
10 to 50	Cc1nn(CC(F)F)c2nc(N3CCC4(CC3)CCN(c3ccc(C(F)(F)F)nc3)C4=O)ncc12 [Cmpd 831]
< 10	Cc1nn(CC(F)F)c2nc(N3CCC4(CC3)CC(=O)N(c3ccc(C(F)(F)F)nc3)C4)ncc12 [Cmpd 832]
< 10	COc1nn(CC(F)F)c2nc(N3CCC4(CCN(c5ccc(C(F)(F)F)nc5)C4)CC3)cnc12 [Cmpd 833]

Same assay, conditions: activation of GCase, EC50 ranges

EC50 [µM]	SMILES
> 100	O=C1N(c2ncc(C(F)(F)F)cc2F)CCC12CCN(c1cnc3cnn(CC(F)F)c3n1)CC2 [Cmpd 777]
< 10	COc1nc2cnn(CC(F)F)c2nc1N1CCC2(CC1)CCN(c1ccc(C(F)(F)F)nc1)C2=O [Cmpd 834]
< 10	COc1nn(CC(F)F)c2nc(N3CCC4(CC3)CCN(c3ccc(C(F)(F)F)nc3)C4=O)cnc12 [Cmpd 835]
< 10	COc1nc2cnn(CC(F)F)c2nc1N1CCC2(CC1)CC(=O)N(c1ccc(C(F)(F)F)nc1)C2 [Cmpd 836]
< 10	COc1nn(CC(F)F)c2nc(N3CCC4(CC3)CC(=O)N(c3ccc(C(F)(F)F)nc3)C4)cnc12 [Cmpd 837]
10 to 50	O=C1N(c2nc(C(F)(F)F)co2)CCC12CCN(c1cnc3cnn(CC(F)F)c3n1)CC2 [Cmpd 838]
< 10	O=C1N(c2nnc(C(F)(F)F)o2)CCC12CCN(c1cnc3cnn(CC(F)F)c3n1)CC2 [Cmpd 839]
< 10	O=C1N(c2nnc(C(F)(F)F)s2)CCC12CCN(c1cnc3cnn(CC(F)F)c3n1)CC2 [Cmpd 840]
< 10	O=C1N(c2cnc(C(F)(F)F)s2)CCC12CCN(c1cnc3cnn(CC(F)F)c3n1)CC2 [Cmpd 841]
10 to 50	Cc1cnc(C(F)(F)F)nc1N1CCC2(CCN(c3cnc4cnn(CC(F)F)c4n3)CC2)C1=O [Cmpd 842]
10 to 50	O=C1N(Cc2cnc(C(F)(F)F)nc2)CCC12CCN(c1cnc3cnn(CC(F)F)c3n1)CC2 [Cmpd 843]
< 10	O=C1N(Cc2ccnc(C(F)(F)F)n2)CCC12CCN(c1cnc3cnn(CC(F)F)c3n1)CC2 [Cmpd 844]
10 to 50	Cn1cc(N2CCC3(CCN(c4cnc5cnn(CC(F)F)c5n4)CC3)C2=O)ccc1=O [Cmpd 845]
